What was measured:
[1] = Cytotoxicity against human MRC5 cells assessed as cell growth inhibition at 10 uM after 7 days by MTT assay; assay type: toxicity, cell-based; settings: mrc5, 168 h
[2] = Cytotoxicity against human HeLa cells assessed as cell growth inhibition at 10 uM after 72 hrs by MTT assay; assay type: toxicity, cell-based
[3] = test system: Trypanosoma brucei brucei; assay: Antitrypanosomal activity against bloodstream form of Trypanosoma brucei brucei GUTat 3.1 after 72 hrs by Alamar blue assay; assay type: functional; settings: GUTat 3.1, 72 h
[4] = Cytotoxicity against human HL60 cells assessed as cell growth inhibition at 10 uM after 72 hrs by MTT assay; assay type: toxicity, cell-based; settings: hl-60, 72 h

SMILES	Activity [1]	Activity [2]	IC50 [3] [nM]	Activity [4]
C/C1=C\[C@@H](C(C)(C)C)OC(=O)[C@H](CC(C)C)N(C)C(=O)[C@H](C)N(C)C(=O)CNC(=O)[C@H](C(C)C)NC(=O)[C@@H]2CCCN2C(=O)[C@H](C)CC1	Non-Toxic	Non-Toxic	47	Non-Toxic
Cc1ccc(C(=O)Nc2ccc(S(=O)(=O)O)c3cc(S(=O)(=O)O)cc(S(=O)(=O)O)c23)cc1NC(=O)c1cccc(NC(=O)Nc2cccc(C(=O)Nc3cc(C(=O)Nc4ccc(S(=O)(=O)O)c5cc(S(=O)(=O)O)cc(S(=O)(=O)O)c45)ccc3C)c2)c1 [SURAMIN]	–	–	1200	–

Reference: ChEMBL document CHEMBL3864127, “Janadolide, a Cyclic Polyketide-Peptide Hybrid Possessing a tert-Butyl Group from an Okeania sp. Marine Cyanobacterium” (J Nat Prod, 2016)
